Laboratory results as given in patent US20050256003A1, “Novel herbicides” (priority 2002, published 2005).

Experiments:
[1] = test system: monocotyledonous and dicotyledonous test plants; test: Herbicidal action prior to emergence of the plants (pre-emergence action); assay type: in vivo; set-up: key: 10=total damage; 0=no action; Ratings of from 10 to 7 (especially from 10 to 8) indicate good to very good herbicidal action; settings: 250 g a.i./ha, pre-emergence spray, evaluated after 3 weeks, scale 10=total damage, 0=no action
Source text: Herbicidal Action Prior to Emergence of the Plants (Pre-Emergence Action)
Monocotyledonous and dicotyledonous test plants are sown in standard soil in plastic pots Immediately after sowing, the test compounds, in the form of an aqueous suspension (prepared from a 25% wettable powder (Example F3, b) according to WO 97/34485) or in the form of an emulsion (prepared from a 25% emulsifiable concentrate (Example F1, c)), are applied by spraying in a concentration corresponding to 125 g or 250 g of active ingredient/ha (500 litres of water/ha). The test plants are then grown in a greenhouse under optimum conditions. After a test duration of 3 weeks, the test is evaluated in accordance with a scale of nine ratings (10=total damage, 0=no action). Ratings of from 10 to 7 (especially from 10 to 8) indicate good to very good herbicidal action.

[2] = test system: monocotyledonous and dicotyledonous test plants; test: Post-emergence herbicidal action; assay type: in vivo; set-up: key: 10=total damage; 0=no action; Ratings of from 10 to 7 (especially from 10 to 8) indicate good to very good herbicidal action; settings: 250 g a.i./ha, about 18 days, rating 0-10
Experimental: Post-Emergence Herbicidal Action
In a greenhouse, monocotyledonous and dicotyledonous test plants are grown in standard soil in plastic pots and at the 4- to 6-leaf stage are sprayed with an aqueous suspension of the test compounds of formula I prepared from a 25% wettable powder (Example F3, b) according to WO 97/34485) or with an emulsion of the test compounds of formula I prepared from a 25% emulsifiable concentrate (Example F1, c) according to WO 97/34485), in a concentration corresponding to 125 g or 250 g of active ingredient/ha (500 litres of water/ha). The test plants are then grown on in a greenhouse under optimum conditions. After a test duration of about 18 days, the test is evaluated in accordance with a scale of nine ratings (10=total damage, 0=no action). Ratings of from 10 to 7 (especially from 10 to 8) indicate good to very good herbicidal action.

CSC(C)n1c(C)cc(=O)n1Cc1nc(C(F)(F)F)ccc1C(=O)C1=C(O)CCCC1=O (racemic) [Compound A1.055]
Pre-emergence action: Abutilon (rating) [1]: 10
Pre-emergence action: Amaranthus (rating) [1]: 0
Pre-emergence action: Chenopodium (rating) [1]: 10
Pre-emergence action: Cyperus (rating) [1]: 10
Pre-emergence action: Echinochloa (rating) [1]: 10
Pre-emergence action: Panicum (rating) [1]: 9
Pre-emergence action: Scirpus (rating) [1]: 9
Pre-emergence action: Sida (rating) [1]: 10

Cn1ncn(Cc2nc(C(F)(F)F)ccc2C(=O)C2=C(O)CCCC2=O)c1=O [Compound A1.073]
Pre-emergence action: Abutilon (rating) [1]: 10
Pre-emergence action: Amaranthus (rating) [1]: 10
Pre-emergence action: Chenopodium (rating) [1]: 10
Pre-emergence action: Cyperus (rating) [1]: 10
Pre-emergence action: Echinochloa (rating) [1]: 3
Pre-emergence action: Panicum (rating) [1]: 10
Pre-emergence action: Scirpus (rating) [1]: 10
Pre-emergence action: Sida (rating) [1]: 9
Post-emergence action, Amaranthus [2]: 10
Post-emergence action, Chenopodium [2]: 10
Post-emergence action, Echinochloa [2]: 9
Post-emergence action, Euphorbia [2]: 9
Post-emergence action, Ipomea [2]: 10
Post-emergence action, Sinapis [2]: 10
Post-emergence action, Stellaria [2]: 10
Post-emergence action, Xanthium [2]: 9

Cn1ncc(C(=O)c2ccc(C(F)(F)F)nc2Cn2cnn(C)c2=O)c1O [Compound B1.080]
Pre-emergence action: Abutilon (rating) [1]: 8
Pre-emergence action: Amaranthus (rating) [1]: 0
Pre-emergence action: Chenopodium (rating) [1]: 10
Pre-emergence action: Cyperus (rating) [1]: 9
Pre-emergence action: Echinochloa (rating) [1]: 10
Pre-emergence action: Panicum (rating) [1]: 10
Pre-emergence action: Scirpus (rating) [1]: 9
Pre-emergence action: Sida (rating) [1]: 0
Post-emergence action, Amaranthus [2]: 10
Post-emergence action, Chenopodium [2]: 10
Post-emergence action, Echinochloa [2]: 9
Post-emergence action, Euphorbia [2]: 10
Post-emergence action, Ipomea [2]: 10
Post-emergence action, Sinapis [2]: 10
Post-emergence action, Stellaria [2]: 10
Post-emergence action, Xanthium [2]: 8

Cc1nn(Cc2nc(C(F)(F)F)ccc2C(=O)c2cnn(C)c2O)c(=O)o1 [Compound B1.008]
Pre-emergence action: Abutilon (rating) [1]: 10
Pre-emergence action: Amaranthus (rating) [1]: 10
Pre-emergence action: Chenopodium (rating) [1]: 10
Pre-emergence action: Cyperus (rating) [1]: 9
Pre-emergence action: Echinochloa (rating) [1]: 9
Pre-emergence action: Panicum (rating) [1]: 10
Pre-emergence action: Scirpus (rating) [1]: 10
Pre-emergence action: Sida (rating) [1]: 9
Post-emergence action, Amaranthus [2]: 9
Post-emergence action, Chenopodium [2]: 10
Post-emergence action, Echinochloa [2]: 9
Post-emergence action, Euphorbia [2]: 8
Post-emergence action, Ipomea [2]: 9
Post-emergence action, Sinapis [2]: 7
Post-emergence action, Stellaria [2]: 8

COc1nn(Cc2nc(C(F)(F)F)ccc2C(=O)C2=C(O)CCCC2=O)c(=O)s1 [Compound A1.091]
Pre-emergence action: Abutilon (rating) [1]: 10
Pre-emergence action: Amaranthus (rating) [1]: 8
Pre-emergence action: Chenopodium (rating) [1]: 9
Pre-emergence action: Cyperus (rating) [1]: 8
Pre-emergence action: Echinochloa (rating) [1]: 9
Pre-emergence action: Panicum (rating) [1]: 4
Pre-emergence action: Scirpus (rating) [1]: 9
Pre-emergence action: Sida (rating) [1]: 7
Post-emergence action, Amaranthus [2]: 9
Post-emergence action, Chenopodium [2]: 10
Post-emergence action, Echinochloa [2]: 9
Post-emergence action, Euphorbia [2]: 8
Post-emergence action, Ipomea [2]: 9
Post-emergence action, Sinapis [2]: 8
Post-emergence action, Stellaria [2]: 10
Post-emergence action, Xanthium [2]: 9

COc1nn(Cc2nc(C(F)(F)F)ccc2C(=O)c2cnn(C)c2O)c(=O)s1 [Compound B1.096]
Pre-emergence action: Abutilon (rating) [1]: 10
Pre-emergence action: Amaranthus (rating) [1]: 10
Pre-emergence action: Chenopodium (rating) [1]: 10
Pre-emergence action: Cyperus (rating) [1]: 7
Pre-emergence action: Panicum (rating) [1]: 7
Pre-emergence action: Scirpus (rating) [1]: 7
Pre-emergence action: Sida (rating) [1]: 7
Post-emergence action, Amaranthus [2]: 7
Post-emergence action, Chenopodium [2]: 10
Post-emergence action, Echinochloa [2]: 6
Post-emergence action, Euphorbia [2]: 7
Post-emergence action, Ipomea [2]: 7
Post-emergence action, Sinapis [2]: 9
Post-emergence action, Stellaria [2]: 8
Post-emergence action, Xanthium [2]: 8

Cc1nn(Cc2nc(C(F)(F)F)ccc2C(=O)C2=C(O)C3CCC(C3)C2=O)c(=O)s1 (stereo not drawn) [Compound A6.079]
Pre-emergence action: Abutilon (rating) [1]: 10
Pre-emergence action: Amaranthus (rating) [1]: 7
Pre-emergence action: Chenopodium (rating) [1]: 10
Pre-emergence action: Cyperus (rating) [1]: 6
Pre-emergence action: Echinochloa (rating) [1]: 7
Pre-emergence action: Panicum (rating) [1]: 9
Pre-emergence action: Scirpus (rating) [1]: 9
Pre-emergence action: Sida (rating) [1]: 6

Cc1nn(Cc2nc(C(F)(F)F)ccc2C(=O)C2=C(O)C(C)(C)CC(C)(C)C2=O)c(=O)o1 [Compound A7.008]
Post-emergence action, Amaranthus [2]: 5
Post-emergence action, Chenopodium [2]: 9
Post-emergence action, Echinochloa [2]: 7
Post-emergence action, Euphorbia [2]: 7
Post-emergence action, Ipomea [2]: 7
Post-emergence action, Sinapis [2]: 9
Post-emergence action, Stellaria [2]: 9
Post-emergence action, Xanthium [2]: 8

Cn1c(C(F)(F)F)nn(Cc2nc(C(F)(F)F)ccc2C(=O)C2=C(O)CCCC2=O)c1=O [Compound A1.007]
Post-emergence action, Amaranthus [2]: 9
Post-emergence action, Chenopodium [2]: 10
Post-emergence action, Echinochloa [2]: 8
Post-emergence action, Euphorbia [2]: 4
Post-emergence action, Ipomea [2]: 9
Post-emergence action, Sinapis [2]: 8
Post-emergence action, Stellaria [2]: 7
Post-emergence action, Xanthium [2]: 9

CCOc1nn(Cc2nc(C(F)(F)F)ccc2C(=O)c2cnn(C)c2O)c(=O)n1C [Compound B1.005]
Post-emergence action, Amaranthus [2]: 9
Post-emergence action, Chenopodium [2]: 9
Post-emergence action, Echinochloa [2]: 4
Post-emergence action, Euphorbia [2]: 9
Post-emergence action, Ipomea [2]: 8
Post-emergence action, Sinapis [2]: 9
Post-emergence action, Stellaria [2]: 8
Post-emergence action, Xanthium [2]: 6

COc1nn(Cc2nc(C(F)(F)F)ccc2C(=O)C2=C(O)C3CCC(C3)C2=O)c(=O)s1 (stereo not drawn) [Compound A6.091]
Post-emergence action, Amaranthus [2]: 8
Post-emergence action, Chenopodium [2]: 9
Post-emergence action, Echinochloa [2]: 9
Post-emergence action, Euphorbia [2]: 8
Post-emergence action, Ipomea [2]: 8
Post-emergence action, Sinapis [2]: 8
Post-emergence action, Stellaria [2]: 9
Post-emergence action, Xanthium [2]: 9

COc1nn(Cc2nc(C(F)(F)F)ccc2C(=O)C2=C(O)CCCC2=O)c(=O)n1C [Compound A1.019]
Post-emergence action, Amaranthus [2]: 9
Post-emergence action, Chenopodium [2]: 9
Post-emergence action, Echinochloa [2]: 8
Post-emergence action, Euphorbia [2]: 9
Post-emergence action, Ipomea [2]: 9
Post-emergence action, Sinapis [2]: 8
Post-emergence action, Stellaria [2]: 8
Post-emergence action, Xanthium [2]: 9

O=C1CCCC(O)=C1C(=O)c1ccc(C(F)(F)F)nc1Cn1sccc1=O [Compound A1.109]
Post-emergence action, Amaranthus [2]: 9
Post-emergence action, Chenopodium [2]: 10
Post-emergence action, Echinochloa [2]: 8
Post-emergence action, Euphorbia [2]: 10
Post-emergence action, Ipomea [2]: 9
Post-emergence action, Sinapis [2]: 3
Post-emergence action, Stellaria [2]: 5
Post-emergence action, Xanthium [2]: 9

CSC(=O)n1c(C)cc(=O)n1Cc1nc(C(F)(F)F)ccc1C(=O)C1=C(O)C(C)(C)C(=O)C(C)(C)C1=O [Compound A8.062]
Post-emergence action, Amaranthus [2]: 9
Post-emergence action, Chenopodium [2]: 10
Post-emergence action, Echinochloa [2]: 9
Post-emergence action, Euphorbia [2]: 9
Post-emergence action, Ipomea [2]: 8
Post-emergence action, Sinapis [2]: 9
Post-emergence action, Stellaria [2]: 5
Post-emergence action, Xanthium [2]: 0
